The record followed here is ChEMBL document CHEMBL1155865, “Discovery of triazolinone non-nucleoside inhibitors of HIV reverse transcriptase” (Bioorg Med Chem Lett, 2008).

Structures are written as SMILES. ≈ marks a conversion by molar mass, not a printed value. Calls of active or inactive are those of the source. The calls are words filed in the database; no cut-off is given here.

In data set [1] the test system is Human immunodeficiency virus 1. The data set is described as follows: Antiviral activity against HIV1 with wild type reverse transcriptase in MT4 cells assessed as inhibition of virus-induced cytopathic effect. The note with it: Human immunodeficiency virus 1, MT4. It is filed as functional, organism-based.
Data set [2] relates to Human immunodeficiency virus 1. The data set is described as follows: Antiviral activity against HIV1 with reverse transcriptase K103N/Y181C mutant in MT4 cells assessed as inhibition of virus-induced cytopathic effect. It is filed as functional, organism-based. The note with it: Human immunodeficiency virus 1, MT4. For orientation: Protection from cytopathic effect is a common read-out in antiviral testing.

In data set [3] the test system is Human immunodeficiency virus 1. Put plainly: Antiviral activity against HIV1 with reverse transcriptase K103N/L100I mutant in MT4 cells assessed as inhibition of virus-induced cytopathic effect. Type of data set: functional, organism-based. The note with it: Human immunodeficiency virus 1, MT4.
Data set [4] has as its target T1, Human immunodeficiency virus type 1 reverse transcriptase (Human immunodeficiency virus 1, UniProt Q72547). The data set is described as follows: (§1) Binding affinity to wild type HIV1 reverse transcriptase by SPR assay. (In general: In SPR one partner is held on a chip, and binding of the other changes the refractive index at the surface.)
The target in data set [5] is T1, Human immunodeficiency virus type 1 reverse transcriptase. Put plainly: Inhibition of wild type HIV1 reverse transcriptase polymerase activity by scintillation counting assay.
In data set [6] the target is Human immunodeficiency virus type 1 reverse transcriptase (Human immunodeficiency virus 1) (UniProt Q72547). Described as §1.
The target in another data set is Cytochrome P450 3A4 (Homo sapiens, UniProt P08684). Put plainly: Inhibition of CYP3A4. It is filed as ADME.
Chain of Cytochrome P450 3A4 (P08684 whole entry): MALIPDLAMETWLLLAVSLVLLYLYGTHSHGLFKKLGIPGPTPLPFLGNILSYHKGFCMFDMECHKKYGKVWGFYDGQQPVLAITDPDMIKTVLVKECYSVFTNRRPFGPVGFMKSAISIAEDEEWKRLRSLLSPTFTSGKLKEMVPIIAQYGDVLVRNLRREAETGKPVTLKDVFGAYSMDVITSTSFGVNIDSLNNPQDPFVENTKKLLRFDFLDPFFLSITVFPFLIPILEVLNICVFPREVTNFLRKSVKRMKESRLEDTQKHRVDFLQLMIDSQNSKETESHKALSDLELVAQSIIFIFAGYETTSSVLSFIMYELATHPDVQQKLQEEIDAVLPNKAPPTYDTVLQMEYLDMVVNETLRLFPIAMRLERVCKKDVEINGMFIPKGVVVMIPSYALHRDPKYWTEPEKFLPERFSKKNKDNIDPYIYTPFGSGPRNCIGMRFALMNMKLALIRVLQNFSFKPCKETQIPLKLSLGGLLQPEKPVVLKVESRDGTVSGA
The next data set has as its system Liver microsomes. The data set is described as follows: Clearance in rat liver microsome per mg of protein. Type of data set: ADME. (In general: Liver microsomes are a subcellular fraction often used to study metabolism.)
A short description of data set [7]: Solubility of compound at pH 6.5. It is filed as physicochemical. Particulars: buffer.
The subject of another data set is Caco-2. Put plainly: Apparent permeability across human Caco-2 cells. It is filed as ADME, cell-based.
Data set [8] relates to Human immunodeficiency virus 1. Put plainly: Antiviral activity against HIV1 with reverse transcriptase Y181C mutant in MT4 cells assessed as inhibition of virus-induced cytopathic effect. It is filed as functional, organism-based. Particulars: Human immunodeficiency virus 1, MT4.
Data set [9] can be described thus: Bioavailability in dog at 2 mg/kg, po. It is filed as ADME, organism-based, Canis lupus familiaris. Particulars: in vivo.
The nature of data set [10]: Clearance in dog at 0.5 mg/kg, iv or 2 mg/kg, po. It is filed as ADME, organism-based, Canis lupus familiaris. Particulars: in vivo.
The nature of data set [11]: Cmax in dog at 0.5 mg/kg, iv or 2 mg/kg, po. Type of data set: ADME, organism-based, Canis lupus familiaris. The note with it: in vivo.
For data set [12], the system named is Human immunodeficiency virus 1. The data set is described as follows: Antiviral activity against HIV1 with reverse transcriptase […] mutant in MT4 cells assessed as inhibition of virus-induced cytopathic effect. Type of data set: functional, organism-based. Particulars: Human immunodeficiency virus 1, MT4.
Data set [13] in a line: AUC (0 to infinity) in dog at 0.5 mg/kg, iv or 2 mg/kg, po. It is filed as ADME, organism-based, Canis lupus familiaris. Particulars: plasma.

By EC50 is commonly meant the concentration at which the effect is half-maximal. In general, Kd refers to the constant that tells how readily two partners part at equilibrium. A high value points to a looser complex. The term IC50 denotes the concentration needed to halve the response being measured. One may read the solubility as the dissolved amount per volume that the medium holds. Low readings indicate a poorly soluble substance, high ones a readily soluble substance. As a reminder, the Papp is a coefficient for how fast a substance crosses the barrier. The bioavailability is dose-corrected exposure relative to a reference, in per cent. Lower therefore signals poor availability. Broadly, the Cmax is the peak of the concentration-time curve. Broadly, the AUC(0-inf) is total exposure, with the tail of the curve extrapolated. A low value points to less exposure.

For the compound `Cc1cc(Cc2ccc(Cl)c(Oc3cc(Cl)cc(C#N)c3)c2F)n[nH]c1=O`, the EC50 in [1] came to 1 nM; in data set [2], 19 nM; in data set [3], 4 nM.

Consider `COc1c(Br)ccc(Cc2n[nH]c(=O)n2C)c1F`, for which binding in data set [4] was put at a Kd of 4000 nM. In addition, the IC50 in [5] was 34000 nM.

For the compound `O=c1[nH]nc(Cc2ccc(Cl)c(Oc3cccc(Br)c3)c2)s1`, the midpoint of inhibition in data set [5], the IC50, lay at 530 nM.

As to `Cn1c(Cc2ccc(Cl)c(Oc3cccc(Br)c3)c2)n[nH]c1=O`, 690 nM corresponded to half-maximal inhibition in [5] (IC50).

As to `O=c1[nH]nc(Cc2ccc(Cl)c(Oc3cccc(Br)c3)c2)o1`, in data set [5], the half-maximal inhibitory concentration (IC50) came to 5800 nM.

As for `Cn1c(Cc2ccc(Cl)c(Oc3cc(Cl)cc(C#N)c3)c2F)n[nH]c1=O`, the EC50 was 8 nM in [1] and 39 nM in data set [2]. Also, in [5], the IC50 came out at 11 nM.

For the compound `Cc1n[nH]c(=O)n1C`, the result in [6] was inactive. In data set [5], this compound gave an IC50 of more than 100000 nM.

On to `Cc1nc(Cc2ccc(Cl)c(Oc3cccc(Br)c3)c2)n[nH]c1=O`, for which the midpoint of inhibition in [5], the IC50, lay at 330 nM.

`CC1OC(Cc2ccc(Cl)c(Oc3cc(Cl)cc(C#N)c3)c2F)=NNC1=O` (stereo not given): the concentration giving a half-maximal response (EC50) in data set [1] worked out at 5 nM; in data set [2], 34 nM. The figures for the IC50 (in data set [5]; at Cytochrome P450 3A4) were 13 nM and 270 nM, respectively.

On to `Cn1c(Cc2ccc(Br)cc2F)n[nH]c1=O`, for which the Kd in [4] worked out at 102000 nM. Also, the IC50 in data set [5] was more than 10000 nM.

On to `C[C@H]1CC(Cc2ccc(Cl)c(Oc3cc(Cl)cc(C#N)c3)c2F)=NNC1=O`, for which the EC50 in data set [1] stood at 32 nM. Moreover, in data set [5], the IC50 turned out to be 17 nM.

Consider `C[C@H]1NC(Cc2ccc(Cl)c(Oc3cc(Cl)cc(C#N)c3)c2F)=NNC1=O`, for which the EC50 amounted to 8 nM in [1] and 72 nM in [2]. Further, the IC50 in [5] amounted to 11 nM. Further, the clearance in the data set with Liver microsomes stood at 130 µL/min/mg.

In data set [7], `Cn1c(Cc2ccc(Br)c(Oc3cc(Cl)cc(C#N)c3)c2F)n[nH]c1=O` returned a solubility of 2.4 µg/mL (≈ 5.48 µM). In [4], this compound came in with a Kd of 4 nM. The Papp with Caco-2 was 15.1 10^-6 cm/s. Besides, the EC50 in [8] is 5 nM; in data set [1] it was 2 nM; in data set [2], 9 nM; in data set [12], 1 nM. In data set [9], this compound returned a bioavailability of 74%. Also, the clearance in data set [10] was 1.5 mL/min/kg. Moreover, in [11], the Cmax was 1300 nM. The same compound showed an IC50 in data set [5] of 5 nM. Moreover, the AUC(0-inf) in data set [13] is 38.4 µM·h.

Take `CN(C)c1cc(Cc2ccc(Cl)c(Oc3cccc(Br)c3)c2)n[nH]c1=O`: the IC50 in data set [5] was determined as 230 nM.

With `Cn1c(Cc2ccc(C3CC3)c(Oc3cc(Cl)cc(C#N)c3)c2F)n[nH]c1=O`, the EC50 in data set [1] came out at 2 nM; in data set [2], 11 nM.

Take `CCc1ccc(Cc2n[nH]c(=O)n2C)c(F)c1Oc1cc(Cl)cc(C#N)c1`: the EC50 came to 2 nM in data set [1] and 4 nM in data set [2].

In the case of `Cc1cc(Cc2ccc(Cl)c(Oc3cccc(Br)c3)c2)n[nH]c1=O`, the IC50 in [5] amounted to 130 nM.

As to `Cn1c(Cc2ccccc2)n[nH]c1=O`, the result in data set [6] was inactive. Also, the IC50 in data set [5] is more than 100000 nM.

`Cn1c(Cc2ccc(Br)cc2)n[nH]c1=O` registered a Kd in [4] of 388000 nM. Further, the IC50 in data set [5] is more than 100000 nM.

In data set [5], `CC1OC(Cc2ccc(Cl)c(Oc3cccc(Br)c3)c2)=NNC1=O` (stereo not given) showed an IC50 of 50 nM.

For the compound `CN1CC(Cc2ccc(Cl)c(Oc3cccc(Br)c3)c2)=NNC1=O`, in [5], the midpoint of inhibition, the IC50, lay at 150 nM.

For `Cc1ccc(Cc2n[nH]c(=O)n2C)c(F)c1Oc1cc(Cl)cc(C#N)c1`, the EC50 turned out to be 2 nM in [1] and 26 nM in data set [2]. On Cytochrome P450 3A4, this compound registered an IC50 of 12000 nM.

In data set [4], `Cn1c(Cc2cccc(Oc3ccccc3)c2)n[nH]c1=O` showed a Kd of 3000 nM. This compound also came in with a half-maximal inhibitory concentration (IC50) in data set [5] of 18000 nM.
